The target in one series is T1, BCRP (Homo sapiens, UniProt Q9UNQ0).
T1 construct: endogenous in cells; host or cells: MCF-7/MX human breast adenocarcinoma cells (mitoxantrone-selected)
T1 sequence (Q9UNQ0 1-655): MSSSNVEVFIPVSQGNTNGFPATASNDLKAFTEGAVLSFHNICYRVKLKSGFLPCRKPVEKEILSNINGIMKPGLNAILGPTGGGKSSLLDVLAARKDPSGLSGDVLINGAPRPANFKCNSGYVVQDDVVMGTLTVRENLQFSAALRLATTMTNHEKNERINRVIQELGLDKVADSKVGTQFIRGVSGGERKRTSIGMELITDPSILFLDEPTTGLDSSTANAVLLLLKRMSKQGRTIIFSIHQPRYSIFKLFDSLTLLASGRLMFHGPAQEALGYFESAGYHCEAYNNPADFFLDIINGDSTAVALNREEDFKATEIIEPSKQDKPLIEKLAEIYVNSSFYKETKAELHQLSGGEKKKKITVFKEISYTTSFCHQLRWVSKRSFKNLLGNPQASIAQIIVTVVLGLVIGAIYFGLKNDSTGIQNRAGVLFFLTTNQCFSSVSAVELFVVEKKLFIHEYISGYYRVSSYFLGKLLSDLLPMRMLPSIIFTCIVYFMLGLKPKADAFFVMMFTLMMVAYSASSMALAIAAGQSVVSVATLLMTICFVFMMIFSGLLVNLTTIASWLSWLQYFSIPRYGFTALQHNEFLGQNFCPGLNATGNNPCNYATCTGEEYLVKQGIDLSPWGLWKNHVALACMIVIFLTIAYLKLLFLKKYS
Put plainly: BCRP transport assay (Hoechst 33342) in MCF-7/MX cells. It counts as cell-based. As to the method:
Breast cancer resistance protein transport activity was determined in the BCRP-expressing MCF-7/MX cell line. Hoechst 33342 was applied as transporter substrate and 1 μM Ko143 as positive control or 0.5% DMSO as negative control and the assay was performed according to the P-gp assay. Fluorescence was measured at an excitation wavelength of 355 nm and emission wavelength of 460 nm. The transport activity of BCRP was analyzed by determining the plateau of the fluorescence-time curve by using non-linear regression (one-phase exponential fit). Normalization of the data to Ko143 (100% inhibition) and DMSO (0% inhibition) was performed.

In the next series the test system is MCF-7/MX cells. Put plainly: CellTiter-Glo cell viability assay (cytotoxicity), MCF-7/MX. It counts as cell-based. Conditions: Homo sapiens, MCF7/MX; 48 h, BCRP-expressing, mean ± SEM. As for the experimental part: (§1) The human lung adenocarcinoma cell line A549 was cultured in DMEM medium supplemented with 10% fetal bovine serum (FBS), 100 U/mL penicillin and 100 μg/mL streptomycin. P-gp-expressing human colon adenocarcinoma cells HCT-15 were cultured in RPMI 1640 medium supplemented with 10% FBS, 100 U/mL penicillin and 100 μg/mL streptomycin. BCRP-expressing MCF-7/MX human breast adenocarcinoma cells were cultured in DMEM medium supplemented with 10% FBS, 100 U/mL penicillin and 100 μg/mL streptomycin. MRP1-expressing H69AR human small cell lung cancer cells were cultured in RPMI 1640 medium (ATCC modification) supplemented with 20% FBS, 100 U/mL penicillin and 100 μg/mL streptomycin. All cancer cell lines employed have been systematically characterized regarding their respective ABC transporter expression profile ([Sachs et al., 2019]).
(§2) Cytotoxic activity of test compounds was analyzed after 48 h using the CellTiter-Glo Luminescent Cell Viability Assay published previously ([Weber et al., 2017]) in 384-well plates with the following cell densities: A549, MCF-7/MX: 2 × 10^3 cells/well; HCT-15: 3 × 10^3 cells/well; H69AR: 5 × 10^3 cells/well. Pipetting was conducted with the CyBi-Well 96-channel simultaneous pipettor (Analytik Jena AG, Jena, Germany). For generation of dose-response curves and calculation of IC50 values, the four-parameter logistic model was applied.
(ATP-based viability assays read luminescence as a measure of living cells.)

The subject of a further series is HCT-15 cells. As to the kind of experiment: CellTiter-Glo cell viability assay (cytotoxicity), HCT-15. The class given is cell-based. Conditions: Homo sapiens, 48 h, P-gp expressing, mean ± SEM. As for the experimental part:
as §1, §2

For a further series, the target named is T2, P-gp (Homo sapiens, UniProt P08183).
T2 construct: endogenous in cells; host or cells: HCT-15 human colon adenocarcinoma cells
T2 sequence (P08183 whole entry): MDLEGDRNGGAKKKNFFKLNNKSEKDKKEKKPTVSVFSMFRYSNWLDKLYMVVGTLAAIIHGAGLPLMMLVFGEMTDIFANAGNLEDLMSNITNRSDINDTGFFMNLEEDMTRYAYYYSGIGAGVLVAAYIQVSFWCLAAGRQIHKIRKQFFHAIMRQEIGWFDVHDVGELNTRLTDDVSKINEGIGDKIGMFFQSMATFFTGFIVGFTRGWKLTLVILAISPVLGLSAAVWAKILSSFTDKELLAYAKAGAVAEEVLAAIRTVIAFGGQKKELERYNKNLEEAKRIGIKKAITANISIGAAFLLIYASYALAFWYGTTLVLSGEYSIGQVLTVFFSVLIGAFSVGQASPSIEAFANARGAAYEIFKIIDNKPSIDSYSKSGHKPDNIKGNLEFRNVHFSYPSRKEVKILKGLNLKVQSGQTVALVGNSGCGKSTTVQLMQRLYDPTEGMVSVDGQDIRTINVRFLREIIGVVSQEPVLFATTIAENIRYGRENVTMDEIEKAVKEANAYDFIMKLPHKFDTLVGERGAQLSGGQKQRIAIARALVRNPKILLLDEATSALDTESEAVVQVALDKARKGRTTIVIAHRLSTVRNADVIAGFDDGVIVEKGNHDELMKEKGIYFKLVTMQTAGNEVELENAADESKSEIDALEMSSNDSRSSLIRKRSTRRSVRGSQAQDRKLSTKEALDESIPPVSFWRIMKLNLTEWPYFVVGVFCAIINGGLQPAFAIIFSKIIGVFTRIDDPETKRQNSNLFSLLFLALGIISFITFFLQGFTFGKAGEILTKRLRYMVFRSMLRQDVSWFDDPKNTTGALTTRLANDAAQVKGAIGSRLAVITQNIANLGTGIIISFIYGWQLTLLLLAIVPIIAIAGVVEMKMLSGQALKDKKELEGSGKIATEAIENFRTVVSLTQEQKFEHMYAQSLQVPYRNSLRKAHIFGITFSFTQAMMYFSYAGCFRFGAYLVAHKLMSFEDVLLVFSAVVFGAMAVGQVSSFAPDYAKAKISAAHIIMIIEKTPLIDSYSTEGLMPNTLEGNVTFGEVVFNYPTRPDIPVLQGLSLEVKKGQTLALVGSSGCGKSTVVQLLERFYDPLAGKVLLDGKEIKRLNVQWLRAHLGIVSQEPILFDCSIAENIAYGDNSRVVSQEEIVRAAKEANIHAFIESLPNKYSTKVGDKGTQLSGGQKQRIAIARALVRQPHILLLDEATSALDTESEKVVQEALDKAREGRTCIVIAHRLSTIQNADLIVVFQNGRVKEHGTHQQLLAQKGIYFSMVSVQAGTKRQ
As to the kind of experiment: P-gp transport assay (calcein-AM) in HCT-15 cells. The class given is cell-based. As for the experimental part:
The transport of calcein-AM by P-gp and its modulation by test compounds was analyzed in the P-gp-expressing HCT-15 cell line. 5 × 10^4 cells were seeded in black 96-well plates and incubated at 37°C and 5% CO2 for 24 h. The culture medium was removed and replaced by Hank’s balanced salt solution supplemented with 10 mM HEPES. Test compounds, 2.5 μM PSC833 (positive control) or 0.5% DMSO (negative control) were added in triplicates and incubated for 30 min at 37°C and 5% CO2. The substrate calcein-AM was added (final concentration 0.5 μM) and the fluorescence (excitation 485 nm, emission 520 nm) was measured over 3 h with the Infinite m1000 pro microplate reader (Tecan Group AG, Männedorf, Switzerland) at 37°C. The transport activity of P-gp was analyzed by determining the slope of the linear part of the fluorescence-time curve (0–30 min) using linear regression. Normalization of the data to PSC833 (100% inhibition) and DMSO (0% inhibition) was performed.

The next series deals with A549 cells. As to the kind of experiment: CellTiter-Glo cell viability assay (cytotoxicity), A549. It counts as cell-based, human. The conditions noted are these: for IC50: Homo sapiens, A549, 48 h, mean ± SEM. As for the experimental part: as §1, §2

As a reminder, the IC50 is the midpoint of a concentration-inhibition curve.

In the case of `COc1cc(O)c2c(c1)C[C@H](C)OC2=O` [Angelicoin B (4), angelicoin B], the “Inhibition of BCRP (in words)” value at BCRP was “no inhibitory activity could be observed”. Moreover, the 50% inhibitory concentration (IC50) with MCF-7/MX cells, in the series on HCT-15 cells and in the series with A549 cells was greater than 100 µM each time. Moreover, on P-gp, the “Inhibition of P-gp (in words)” value is on record as “did not differ significantly from those of derivative 14”.
`COc1cc(O)c2c(c1)CCOC2=O` [Compound 14]: the “Inhibition of BCRP (in words)” value at BCRP is on record as “did not inhibit BCRP”. The 50% inhibitory concentration (IC50) in the series on MCF-7/MX cells, in the series on HCT-15 cells and in the series with A549 cells was greater than 100 µM throughout. In addition, the “Relative inhibition of P-gp, span over the tested concentrations” value on P-gp (different concentrations, normalized to PSC833) is “up to 10%”.
Take `CCCCCC1Cc2cc(OC)cc(O)c2C(=O)O1` (centres unmarked) [Compound 16]: the inhibition at 3 h, 10 μM at BCRP (human, BCRP-expressing MCF-7/MX cells, probe Hoechst 33342, 10 μM, normalized to 1 μM Ko143 (100%) and DMSO (0%), read-out: Relative inhibition of BCRP) turned out to be 35.3 ± 3.4%. For the same compound, at BCRP (human, BCRP-expressing MCF-7/MX cells, probe Hoechst 33342, 50 μM, normalized to 1 μM Ko143 (100%) and DMSO (0%), read-out: Relative inhibition of BCRP), the inhibition at 3 h, 50 μM was determined as 89.1 ± 4.6%. The half-inhibitory concentration (IC50) with MCF-7/MX cells was greater than 100 µM; in the series on HCT-15 cells, greater than 100 µM; in the series with A549 cells, 78.6 ± 2.2 µM. At P-gp (human, P-gp-expressing HCT-15 cells, probe calcein-AM (0.5 μM), 10 μM, normalized to 2.5 μM PSC833 (100%) and DMSO (0%), read-out: Relative inhibition of P-gp), the inhibition at 10 μM is 36.3 ± 5.3%. In addition, on P-gp (human, P-gp-expressing HCT-15 cells, probe calcein-AM (0.5 μM), 50 μM, normalized to 2.5 μM PSC833 (100%) and DMSO (0%), read-out: Relative inhibition of P-gp), the inhibition at 50 μM was 81.2 ± 2.7%.
`CCCCCC1Cc2cc(OC)cc(OC)c2C(=O)O1` (centres unmarked) [Compound 16a]: the inhibition at 3 h on BCRP (human, BCRP-expressing MCF-7/MX cells, probe Hoechst 33342, different concentrations, normalized to Ko143, read-out: Relative inhibition of BCRP, span over the tested concentrations) was 2.3 to 14.9%. Further, the IC50 with MCF-7/MX cells was 10.6 ± 0.9 µM; in the series with HCT-15 cells, greater than 100 µM; in the series on A549 cells it was 53.6 ± 5.6 µM. Further, on P-gp (human, P-gp-expressing HCT-15 cells, probe calcein-AM (0.5 μM), 20 μM, normalized to 2.5 μM PSC833 (100%) and DMSO (0%), read-out: Relative inhibition of P-gp), the inhibition at 20 μM is greater than 20%. For the same compound, the “fold lower IC50 value than compound 16” value in the series with A549 cells (A549 cells) was “about 1.5 fold”.

These data come from PMC6476959, “Novel 3,4-Dihydroisocoumarins Inhibit Human P-gp and BCRP in Multidrug Resistant Tumors and Demonstrate Substrate Inhibition of Yeast Pdr5” (Frontiers in Pharmacology, 2019).
